This passage reports IC90 results from patent US20230203043A1, “NOVEL IMIDAZOPYRAZINE DERIVATIVES” (Hoffmann-La Roche Inc., priority 2020, published 2023).

Where a name gives a salt, the structure may show the parent alone.

One test concerns Acinetobacter baumannii ATCC17961. The experiment in a line: Antimicrobial susceptibility testing: 90% growth inhibitory concentration (IC90) determination in Iso-Sensitest broth, OD600 growth. The test is classed as cell-based. Conditions: Acinetobacter baumannii, ATCC17961, 16 h, read-out: A. baumannii ATCC 17961 IC90 (uM), strain ATCC 17961, OD600 growth over 16 h. In outline:
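Growth inhibition is calculated during the logarithmic phase from OD600 readings taken every 20 minutes across 16 h at 35±2° C. Bacteria at ~5×10^(5) CFU/ml face twofold dilution series (e.g. 50 to 0.097 μM final).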
The term IC90 denotes the concentration at which the effect reaches the 90% level. In the case of `CCc1cc(Nc2nccn3c(-c4cn(CC#N)nc4C(F)(F)F)cnc23)ccc1C(=O)NCCCNC(=O)CN` [Example 802, N-(3-(2-aminoacetamido)propyl)-4-((3-(1-(cyanomethyl)-3-(trifluoromethyl)-1H-pyrazol-4-yl)imidazo[1,2-a]pyrazin-8-yl)amino)-2-ethylbenzamide formate], the IC90 turned out to be 3.54 µM.

As for `N#CCn1cc(-c2cnc3c(Nc4ccc(C(=O)N5CCN(C(=O)N6CC[C@H](N)C6)CC5)c(Cl)c4)nccn23)c(C(F)(F)F)n1` [Example 180, 2-[4-[8-[4-[4-[(3S)-3-aminopyrrolidine-1-carbonyl]piperazine-1-carbonyl]-3-chloroanilino]imidazo[1,2-a]pyrazin-3-yl]-3-(trifluoromethyl)pyrazol-1-yl]acetonitrile formate], the IC90 worked out at 0.182 µM.

In the case of `CCc1cc(Nc2nccn3c(-c4cn(CC(F)F)nc4C(F)(F)F)cnc23)ccc1C(=O)NCC(=O)N1CC2(CNC2)C1` [Example 526, N-[2-(2,6-diazaspiro[3.3]heptan-2-yl)-2-oxo-ethyl]-4-[[3-[1-(2,2-difluoroethyl)-3-(trifluoromethyl)pyrazol-4-yl]imidazo[1,2-a]pyrazin-8-yl]amino]-2-ethyl-benzamide formate], the IC90 came out at 0.306 µM.

Take `CCc1cc(Nc2nccn3c(-c4cn(C5CCC5)nc4C(F)(F)F)cnc23)ccc1C(=O)NCCOCCCN` [Example 609, N-(2-(3-aminopropoxy)ethyl)-4-((3-(1-cyclobutyl-3-(trifluoromethyl)-1H-pyrazol-4-yl)imidazo[1,2-a]pyrazin-8-yl)amino)-2-ethylbenzamide formate]: the IC90 stood at 0.086 µM.

Turning to `CCc1cc(Nc2nccn3c(-c4cn(CCN(C)C)nc4C(F)(F)F)cnc23)ccc1C(=O)NCCOCCN` [Example 309, N-[2-(2-aminoethoxy)ethyl]-4-[[3-[1-[2-(dimethylamino)ethyl]-3-(trifluoromethyl)pyrazol-4-yl]imidazo[1,2-a]pyrazin-8-yl]amino]-2-ethylbenzamide formate], the IC90 amounted to 0.618 µM.

Turning to `CCc1cc(Nc2nccn3c(-c4c[nH]nc4C(F)(F)F)cnc23)ccc1C(=O)NCCNC(=O)[C@@H](C)N` [Example 696, (R)-N-(2-(2-aminopropanamido)ethyl)-2-ethyl-4-((3-(3-(trifluoromethyl)-1H-pyrazol-4-yl)imidazo [1,2-a]pyrazin-8-yl)amino)benzamide formate], the IC90 is 0.37 µM.

On to `Cc1cc(Nc2nccn3c(-c4cn(CC#N)nc4C(F)(F)F)cnc23)cc(F)c1C(=O)N1CCN(C(=O)C2CCNCC2)CC1` [Example 703, 2-(4-(8-((3-fluoro-5-methyl-4-(4-(piperidine-4-carbonyl)piperazine-1-carbonyl)phenyl)amino)imidazo[1,2-a]pyrazin-3-yl)-3-(trifluoromethyl)-1H-pyrazol-1-yl)acetonitrile formate], for which the IC90 was determined as 0.383 µM.

As to `CCc1cc(Nc2nccn3c(-c4cn(CC(F)F)nc4C(F)(F)F)cnc23)ccc1C(=O)NCCOCCCN` [Example 618, N-(2-(3-aminopropoxy)ethyl)-4-((3-(1-(2,2-difluoroethyl)-3-(trifluoromethyl)-1H-pyrazol-4-yl)imidazo[1,2-a]pyrazin-8-yl)amino)-2-ethylbenzamide formate], the IC90 was found to be 0.129 µM.

On to `CCc1cc(Nc2nccn3c(-c4cn(CC(F)F)nc4C(F)(F)F)cnc23)ccc1C(=O)NCCOCCN` [Example 302, N-[2-(2-aminoethoxy)ethyl]-4-[[3-[1-(2,2-difluoroethyl)-3-(trifluoromethyl)pyrazol-4-yl]imidazo[1,2-a]pyrazin-8-yl]amino]-2-ethylbenzamide formate], for which the IC90 is 0.17 µM.

As to `Cc1cc(Nc2nccn3c(-c4c[nH]nc4C(F)(F)F)cnc23)ccc1C(=O)N1CCN(C(=O)[C@H]2CCNC[C@H]2O)CC1` [Example 463, formic acid; [4-[(3S,4S)-3-hydroxypiperidine-4-carbonyl]piperazin-1-yl]-[2-methyl-4-[[3-[3-(trifluoromethyl)-1H-pyrazol-4-yl]imidazo[1,2-a]pyrazin-8-yl]amino]phenyl]methanone], the IC90 was determined as 0.998 µM.

For the compound `Cc1cc(Nc2nccn3c(-c4cn(C)nc4C(F)(F)F)cnc23)ccc1C(=O)N1CCN(C(=O)[C@H]2CCNC[C@@H]2O)CC1` [Example 478, formic acid; [4-[(3R,4S)-3-hydroxypiperidine-4-carbonyl]piperazin-1-yl]-[2-methyl-4-[[3-[1-methyl-3-(trifluoromethyl)pyrazol-4-yl]imidazo[1,2-a]pyrazin-8-yl]amino]phenyl]methanone], the IC90 is 3.46 µM.

As to `Cc1cc(Nc2nccn3c(-c4cn(CC#N)nc4C(F)(F)F)cnc23)cc(F)c1C(=O)N[C@H](C)CNC(=O)CN` [Example 689, (R)-N-(1-(2-aminoacetamido)propan-2-yl)-4-((3-(1-(cyanomethyl)-3-(trifluoromethyl)-1H-pyrazol-4-yl)imidazo[1,2-a]pyrazin-8-yl)amino)-2-fluoro-6-methylbenzamide formate], the IC90 stood at 0.351 µM.

Staying with this test, now noted: Acinetobacter baumannii, ATCC17961, 16 h, strain ATCC 17961, OD600 growth over 16 h, read-out: A. baumannii ATCC 17961 IC90.
As for `CCc1cc(Nc2nccn3c(-c4cn(CCF)nc4C(F)(F)F)cnc23)ccc1C(=O)N1CCC(CN)CC1` [Example 62, [4-(aminomethyl)piperidin-1-yl]-[2-ethyl-4-[[3-[1-(2-fluoroethyl)-3-(trifluoromethyl)pyrazol-4-yl]imidazo[1,2-a]pyrazin-8-yl]amino]phenyl] methanone], the IC90 was 0.242 µM.

With `NCC(=O)N1CCN(C(=O)c2ccc(Nc3nccn4c(-c5cn(CC(F)F)nc5C(F)(F)F)cnc34)cc2Cl)CC1` [Example 6, 2-amino-1-[4-[2-chloro-4-[[3-[1-(2,2-difluoroethyl)-3-(trifluoromethyl)pyrazol-4-yl]imidazo[1,2-a]pyrazin-8-yl]amino]benzoyl]piperazin-1-yl]ethanone], the IC90 was found to be 0.159 µM.

On to `CCc1cc(Nc2nccn3c(-c4cn(CC(F)F)nc4C(F)(F)F)cnc23)ccc1C(=O)NCCCNC(=O)N1CC[C@@H](N)C1` [Example 632, (R)-3-amino-N-(3-(4-((3-(1-(2,2-difluoroethyl)-3-(trifluoromethyl)-1H-pyrazol-4-yl)imidazo[1,2-a]pyrazin-8-yl)amino)-2-ethylbenzamido)propyl) pyrrolidine-1-carboxamide formate], for which the IC90 was determined as 0.209 µM.

As to `N#CCn1cc(-c2cnc3c(Nc4ccc(C(=O)N5CC(NC(=O)N[C@H]6CCNC6)C5)c(Cl)c4)nccn23)c(C(F)(F)F)n1` [Example 172, 1-[1-[2-chloro-4-[[3-[1-(cyanomethyl)-3-(trifluoromethyl)pyrazol-4-yl]imidazo[1,2-a]pyrazin-8-yl]amino]benzoyl]azetidin-3-yl]-3-[(3S)-pyrrolidin-3-yl]urea], the IC90 stood at 0.832 µM.

The test is the same for the next values; noted with them: strain ATCC 17961, OD600 growth over 16 h, read-out: A. baumannii ATCC 17961 IC90.
As to `N[C@H]1CC[C@H](NC(=O)N2CCN(C(=O)c3ccc(Nc4nccn5c(-c6c[nH]nc6C(F)(F)F)cnc45)cc3Cl)CC2)C1` [Example 292, N-[(1S,3S)-3-aminocyclopentyl]-4-[2-chloro-4-[[3-[3-(trifluoromethyl)-1H-pyrazol-4-yl]imidazo[1,2-a]pyrazin-8-yl]amino]benzoyl] piperazine-1-carboxamide formate], the IC90 was 0.354 µM.

For the compound `C[C@H](O)CNC(=O)c1ccc(Nc2nccn3c(-c4cn(CC#N)nc4C(F)(F)F)cnc23)cc1Cl` [Example 240, 2-chloro-4-[[3-[1-(cyanomethyl)-3-(trifluoromethyl)pyrazol-4-yl]imidazo[1,2-a]pyrazin-8-yl]amino]-N-[(2S)-2-hydroxypropyl] benzamide], the IC90 amounted to 0.253 µM.
